Results as given in ChEMBL document CHEMBL3865793, “Non-specific binding sites help to explain mixed inhibition in mushroom tyrosinase activities” (Eur J Med Chem, 2016).
The source made the active and inactive calls. No cut-off for these calls is given here.

Key:
[1] = target: T1, Mushroom tyrosinase (Agaricus bisporus) (UniProt O42713+Q00024+C7FF04+C7FF05); assay: Activation of cresolase activity of mushroom tyrosinase at 18 uM using 4-[(4-Methylphenyl) azo]-phenol as substrate by Dixon plot analysis
[2] = target: T1, Mushroom tyrosinase (Agaricus bisporus); assay: Activation of cresolase activity of mushroom tyrosinase at <150 uM using 4-[(4-Methylphenyl) azo]-phenol as substrate measured after 15 mins by spectrophotometric method
[3] = target: T1, Mushroom tyrosinase (Agaricus bisporus); assay: Inhibition of cresolase activity of mushroom tyrosinase at >150 uM using 4-[(4-Methylphenyl) azo]-phenol as substrate measured after 15 mins by spectrophotometric method
[4] = target: T1, Mushroom tyrosinase (Agaricus bisporus); assay: Inhibition of cresolase activity of mushroom tyrosinase at 0 to 450 uM using 18 to 61 uM of 4-[(4-Methylphenyl) azo]-phenol as substrate
[5] = target: T1, Mushroom tyrosinase (Agaricus bisporus); assay: Activation of cresolase activity of mushroom tyrosinase at 50 to 150 uM using 4-[(4-Methylphenyl) azo]-phenol as substrate by Lineweaver-Burk plot analysis
[6] = target: Mushroom tyrosinase (Agaricus bisporus, UniProt O42713+Q00024+C7FF04+C7FF05); assay: Inhibition of cresolase activity of mushroom tyrosinase using 4-[(4-Methylphenyl) azo]-phenol as substrate measured after 15 mins by spectrophotometric method
[7] = target: T1, Mushroom tyrosinase (Agaricus bisporus); assay: Activation of cresolase activity of mushroom tyrosinase assessed as dissociation constant for substrate after 15 mins using 4-[(4-Methylphenyl) azo]-phenol as substrate
[8] = target: T1, Mushroom tyrosinase (Agaricus bisporus); assay: Activation of cresolase activity of mushroom tyrosinase assessed as activation constant after 15 mins using 4-[(4-Methylphenyl) azo]-phenol as substrate
[9] = target: T1, Mushroom tyrosinase (Agaricus bisporus); assay: Activation of cresolase activity of mushroom tyrosinase assessed as inverse of activation constant after 15 mins using 4-[(4-Methylphenyl) azo]-phenol as substrate
[10] = target: T1, Mushroom tyrosinase (Agaricus bisporus); assay: Activation of cresolase activity of mushroom tyrosinase at <= 150 uM after 15 mins using 4-[(4-Methylphenyl) azo]-phenol as substrate relative to untreated control
[11] = target: T1, Mushroom tyrosinase (Agaricus bisporus); assay: Inhibition of cresolase activity of mushroom tyrosinase at 0 to 10.5 uM using 23 to 50.05 uM of 4-[(4-Methylphenyl) azo]-phenol as substrate
[12] = target: T1, Mushroom tyrosinase (Agaricus bisporus); assay: Inhibition of cresolase activity of mushroom tyrosinase at <5 uM using 4-[(4-Methylphenyl) azo]-phenol as substrate
[13] = target: T1, Mushroom tyrosinase (Agaricus bisporus); assay: Mixed type activation of cresolase activity of mushroom tyrosinase at 5 to 10.5 uM using 4-[(4-Methylphenyl) azo]-phenol as substrate by Lineweaver-Burk plot analysis
[14] = target: T1, Mushroom tyrosinase (Agaricus bisporus); assay: Mixed type activation of cresolase activity of mushroom tyrosinase using 4-[(4-Methylphenyl) azo]-phenol as substrate by Dixon plot analysis
[15] = target: T1, Mushroom tyrosinase (Agaricus bisporus); assay: Activation of cresolase activity of mushroom tyrosinase at >5 uM after 15 mins using 4-[(4-Methylphenyl) azo]-phenol as substrate
[16] = target: T1, Mushroom tyrosinase (Agaricus bisporus); assay: Activation of cresolase activity of mushroom tyrosinase at <= 10 uM after 15 mins using 4-[(4-Methylphenyl) azo]-phenol as substrate relative to untreated control
[17] = system: O=C(O)/C=C/c1ccccc1; assay: (§1) Activation of cresolase activity of mushroom tyrosinase assessed as Vmax after 15 mins using 4-[(4-Methylphenyl) azo]-phenol as substrate; details: Agaricus bisporus
[18] = system: O=C(O)c1ccccc1C(=O)O; assay: as §1; details: Agaricus bisporus

Chain of Mushroom tyrosinase (Agaricus bisporus) (from UniProt O42713+Q00024+C7FF04+C7FF05) (C7FF05 whole entry, looked up): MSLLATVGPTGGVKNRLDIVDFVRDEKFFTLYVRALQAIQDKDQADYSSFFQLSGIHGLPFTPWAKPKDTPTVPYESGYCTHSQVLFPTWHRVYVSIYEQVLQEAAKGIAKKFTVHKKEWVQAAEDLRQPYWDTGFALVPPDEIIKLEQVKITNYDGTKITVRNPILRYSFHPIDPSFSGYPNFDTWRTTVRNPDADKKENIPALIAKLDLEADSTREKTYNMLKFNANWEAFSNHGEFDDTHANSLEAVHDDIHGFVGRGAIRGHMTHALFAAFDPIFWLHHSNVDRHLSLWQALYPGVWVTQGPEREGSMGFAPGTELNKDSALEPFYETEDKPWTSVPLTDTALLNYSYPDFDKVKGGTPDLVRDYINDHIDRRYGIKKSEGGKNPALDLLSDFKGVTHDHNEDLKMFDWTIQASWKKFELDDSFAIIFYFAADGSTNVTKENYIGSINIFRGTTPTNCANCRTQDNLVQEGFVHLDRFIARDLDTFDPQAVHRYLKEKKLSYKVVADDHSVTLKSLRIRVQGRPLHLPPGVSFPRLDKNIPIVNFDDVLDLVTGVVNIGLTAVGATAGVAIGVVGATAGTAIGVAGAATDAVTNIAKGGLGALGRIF
Chain of Mushroom tyrosinase (Agaricus bisporus) (from UniProt O42713+Q00024+C7FF04+C7FF05) (C7FF04 whole entry, looked up): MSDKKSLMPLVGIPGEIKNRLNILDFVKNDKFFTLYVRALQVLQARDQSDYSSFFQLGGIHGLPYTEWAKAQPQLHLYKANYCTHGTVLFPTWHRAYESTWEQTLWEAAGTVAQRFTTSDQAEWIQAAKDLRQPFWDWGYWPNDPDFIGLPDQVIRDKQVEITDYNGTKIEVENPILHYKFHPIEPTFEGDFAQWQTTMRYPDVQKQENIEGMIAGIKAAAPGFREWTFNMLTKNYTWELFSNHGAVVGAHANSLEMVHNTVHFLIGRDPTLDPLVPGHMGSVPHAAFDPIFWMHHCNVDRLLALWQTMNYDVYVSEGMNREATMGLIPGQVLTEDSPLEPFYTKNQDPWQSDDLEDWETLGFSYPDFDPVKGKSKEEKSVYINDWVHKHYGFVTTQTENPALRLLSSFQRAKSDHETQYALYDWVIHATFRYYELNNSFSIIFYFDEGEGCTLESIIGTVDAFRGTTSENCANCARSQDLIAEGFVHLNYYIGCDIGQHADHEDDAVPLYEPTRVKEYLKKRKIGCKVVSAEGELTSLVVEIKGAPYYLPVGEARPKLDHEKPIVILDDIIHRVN
Chain of Mushroom tyrosinase (Agaricus bisporus) (from UniProt O42713+Q00024+C7FF04+C7FF05) (Q00024 whole entry, looked up): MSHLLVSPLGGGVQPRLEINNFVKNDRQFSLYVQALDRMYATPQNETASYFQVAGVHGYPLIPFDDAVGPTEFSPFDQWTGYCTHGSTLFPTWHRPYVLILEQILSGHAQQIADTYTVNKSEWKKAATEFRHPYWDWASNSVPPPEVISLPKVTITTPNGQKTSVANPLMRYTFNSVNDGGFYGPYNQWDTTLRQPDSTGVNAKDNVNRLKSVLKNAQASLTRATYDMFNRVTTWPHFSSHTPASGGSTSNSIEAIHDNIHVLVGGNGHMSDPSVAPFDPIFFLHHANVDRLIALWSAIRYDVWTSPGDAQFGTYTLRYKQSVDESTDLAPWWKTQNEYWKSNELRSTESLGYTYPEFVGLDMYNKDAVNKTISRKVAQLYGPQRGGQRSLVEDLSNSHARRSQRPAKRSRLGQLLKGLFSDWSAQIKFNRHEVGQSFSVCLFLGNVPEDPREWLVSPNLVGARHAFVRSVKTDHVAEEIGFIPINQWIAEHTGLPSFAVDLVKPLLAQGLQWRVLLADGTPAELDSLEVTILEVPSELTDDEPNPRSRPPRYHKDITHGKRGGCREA
Chain of Mushroom tyrosinase (Agaricus bisporus) (from UniProt O42713+Q00024+C7FF04+C7FF05) (O42713 whole entry, looked up): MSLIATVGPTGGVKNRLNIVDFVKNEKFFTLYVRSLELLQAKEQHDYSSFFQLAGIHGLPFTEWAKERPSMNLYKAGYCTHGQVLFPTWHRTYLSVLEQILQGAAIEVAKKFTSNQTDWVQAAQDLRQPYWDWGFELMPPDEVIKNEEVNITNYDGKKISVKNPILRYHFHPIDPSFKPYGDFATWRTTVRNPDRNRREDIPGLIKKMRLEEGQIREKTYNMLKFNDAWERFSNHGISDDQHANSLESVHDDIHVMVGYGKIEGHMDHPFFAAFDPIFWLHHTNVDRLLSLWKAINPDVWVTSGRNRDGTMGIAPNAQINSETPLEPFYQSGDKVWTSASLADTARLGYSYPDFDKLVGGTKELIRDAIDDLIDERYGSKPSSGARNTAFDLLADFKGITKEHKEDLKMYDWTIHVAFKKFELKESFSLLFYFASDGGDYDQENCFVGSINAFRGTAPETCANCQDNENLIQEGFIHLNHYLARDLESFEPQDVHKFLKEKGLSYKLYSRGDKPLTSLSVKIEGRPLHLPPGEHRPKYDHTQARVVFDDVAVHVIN

inhibition [11] | inhibition [12] | Activity [13] | Activity [14] | Activity [15] | fold change (FC) [16] | Molecule | Activity [1] | Activity [2] | inhibition [3] | inhibition [4] | Activity [5] | IC50 [6] | Ki [6] | K [7] | KA [8] | Ka [9] | Activity [10] | Vmax [17] | Vmax [18]
– | – | – | – | – | – | O=C(O)c1ccccc1C(=O)O [PHTHALIC ACID] | Active | Active | Active | Active | Active | 271.79 µM | 100 µM | 67.2 µM | 10.9 µM | 91.3 mM⁻¹ | 11 to 23% | – | –
Active | Active | Active | Active | Active | 2 | O=C(O)/C=C/c1ccccc1 | – | – | – | – | – | – | – | – | 5.41 µM | 185 mM⁻¹ | – | – | –
– | – | – | – | – | – | Mushroom tyrosinase (Agaricus bisporus) (from UniProt O42713+Q00024+C7FF04+C7FF05) | – | – | – | – | – | – | – | – | – | – | – | 7.9 µM/min | 14.5 µM/min
